Source: paper PMC5762315, “Inhibition of polo-like kinase 4 (PLK4): a new therapeutic option for rhabdoid tumors and pediatric medulloblastoma” (Oncotarget, 2017)
“And” between values parts separate entries of the source, which are not always exact repeats. Equal values may be shown once.

How the values were obtained:
Assay in all cases: biochemical
Type in all cases: biochemical
various kinases [1] = target: various kinases (Homo sapiens, UniProt Q8NE63); conditions: HIPK4
various kinases [2] = target: various kinases (Homo sapiens, UniProt P51451); conditions: BLK
various kinases [3] = target: various kinases (Homo sapiens, UniProt P42345); conditions: FRAP1 (mTOR)
various kinases [4] = target: various kinases (Homo sapiens, UniProt Q8WTQ7); conditions: GRK7
various kinases (Homo sapiens, UniProt Q8WTQ7), sequence (Q8WTQ7 whole entry): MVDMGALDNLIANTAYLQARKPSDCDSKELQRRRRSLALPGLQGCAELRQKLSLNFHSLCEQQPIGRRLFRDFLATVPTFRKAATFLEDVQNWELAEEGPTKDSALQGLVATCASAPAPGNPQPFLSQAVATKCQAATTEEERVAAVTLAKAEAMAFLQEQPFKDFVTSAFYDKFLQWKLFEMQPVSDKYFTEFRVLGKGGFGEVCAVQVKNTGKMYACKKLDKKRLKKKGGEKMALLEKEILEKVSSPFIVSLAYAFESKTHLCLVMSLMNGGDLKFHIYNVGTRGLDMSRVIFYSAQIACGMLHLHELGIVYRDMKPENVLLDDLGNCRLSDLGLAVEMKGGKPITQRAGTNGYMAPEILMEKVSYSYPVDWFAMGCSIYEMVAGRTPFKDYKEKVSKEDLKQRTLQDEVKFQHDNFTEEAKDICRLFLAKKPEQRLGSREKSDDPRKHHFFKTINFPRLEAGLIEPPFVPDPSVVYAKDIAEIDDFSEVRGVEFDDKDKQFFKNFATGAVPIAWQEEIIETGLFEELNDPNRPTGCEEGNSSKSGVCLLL

various kinases [5] = target: T1, various kinases (Homo sapiens, UniProt P43403); conditions: kinase ZAP70; ZLYTE
T1 sequence (P43403 1-619): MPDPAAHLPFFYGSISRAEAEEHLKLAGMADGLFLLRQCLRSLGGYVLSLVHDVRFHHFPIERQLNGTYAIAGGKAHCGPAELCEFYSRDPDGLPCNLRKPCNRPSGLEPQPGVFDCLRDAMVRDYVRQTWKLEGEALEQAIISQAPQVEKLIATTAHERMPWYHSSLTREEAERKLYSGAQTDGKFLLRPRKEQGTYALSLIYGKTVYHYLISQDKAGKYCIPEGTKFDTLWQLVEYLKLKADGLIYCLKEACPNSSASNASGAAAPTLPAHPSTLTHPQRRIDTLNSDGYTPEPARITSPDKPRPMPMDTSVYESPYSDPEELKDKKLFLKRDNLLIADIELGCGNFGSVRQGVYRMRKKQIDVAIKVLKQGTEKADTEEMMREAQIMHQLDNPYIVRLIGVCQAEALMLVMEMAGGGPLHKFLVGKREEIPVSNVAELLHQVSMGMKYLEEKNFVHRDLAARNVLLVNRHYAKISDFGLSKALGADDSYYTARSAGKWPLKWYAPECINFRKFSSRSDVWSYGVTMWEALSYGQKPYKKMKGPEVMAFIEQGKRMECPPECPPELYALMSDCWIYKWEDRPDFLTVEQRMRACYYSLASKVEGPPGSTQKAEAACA

various kinases [6] = target: various kinases (Homo sapiens, UniProt P22455); conditions: FGFR4
various kinases (Homo sapiens, UniProt P22455), sequence (P22455 22-802): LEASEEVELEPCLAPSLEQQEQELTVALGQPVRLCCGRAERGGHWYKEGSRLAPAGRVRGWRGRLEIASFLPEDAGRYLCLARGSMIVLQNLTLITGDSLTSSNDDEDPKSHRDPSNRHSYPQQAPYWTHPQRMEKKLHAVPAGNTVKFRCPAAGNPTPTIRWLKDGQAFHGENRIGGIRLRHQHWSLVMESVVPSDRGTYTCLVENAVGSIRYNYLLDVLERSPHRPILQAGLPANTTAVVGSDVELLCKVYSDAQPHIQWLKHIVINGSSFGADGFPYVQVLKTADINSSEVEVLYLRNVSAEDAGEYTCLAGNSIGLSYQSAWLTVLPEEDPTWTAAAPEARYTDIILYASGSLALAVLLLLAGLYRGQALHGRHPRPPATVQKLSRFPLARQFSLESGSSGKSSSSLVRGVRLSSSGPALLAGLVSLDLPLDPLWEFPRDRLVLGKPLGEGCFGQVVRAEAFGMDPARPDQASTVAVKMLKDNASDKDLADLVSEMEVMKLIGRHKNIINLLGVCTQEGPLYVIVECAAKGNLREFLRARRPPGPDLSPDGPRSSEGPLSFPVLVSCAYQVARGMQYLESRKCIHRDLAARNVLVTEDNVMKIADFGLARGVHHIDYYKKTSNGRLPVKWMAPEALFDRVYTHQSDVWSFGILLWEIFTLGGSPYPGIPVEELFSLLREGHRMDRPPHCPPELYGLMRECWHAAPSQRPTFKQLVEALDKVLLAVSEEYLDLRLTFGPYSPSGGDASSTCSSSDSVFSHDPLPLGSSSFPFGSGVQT

various kinases [7] = target: various kinases (Homo sapiens, UniProt P53779); conditions: MAPK10 (JNK3)
various kinases [8] = target: various kinases (Homo sapiens, UniProt P05129); conditions: kinase PRKCG (PKC gamma); ZLYTE
various kinases [9] = target: various kinases (Homo sapiens, UniProt P00519, G250E); conditions: ABL1 G250E
various kinases [10] = target: various kinases (Homo sapiens, UniProt P07949); conditions: kinase RET; ZLYTE
various kinases (Homo sapiens, UniProt P07949), sequence (P07949 29-1114): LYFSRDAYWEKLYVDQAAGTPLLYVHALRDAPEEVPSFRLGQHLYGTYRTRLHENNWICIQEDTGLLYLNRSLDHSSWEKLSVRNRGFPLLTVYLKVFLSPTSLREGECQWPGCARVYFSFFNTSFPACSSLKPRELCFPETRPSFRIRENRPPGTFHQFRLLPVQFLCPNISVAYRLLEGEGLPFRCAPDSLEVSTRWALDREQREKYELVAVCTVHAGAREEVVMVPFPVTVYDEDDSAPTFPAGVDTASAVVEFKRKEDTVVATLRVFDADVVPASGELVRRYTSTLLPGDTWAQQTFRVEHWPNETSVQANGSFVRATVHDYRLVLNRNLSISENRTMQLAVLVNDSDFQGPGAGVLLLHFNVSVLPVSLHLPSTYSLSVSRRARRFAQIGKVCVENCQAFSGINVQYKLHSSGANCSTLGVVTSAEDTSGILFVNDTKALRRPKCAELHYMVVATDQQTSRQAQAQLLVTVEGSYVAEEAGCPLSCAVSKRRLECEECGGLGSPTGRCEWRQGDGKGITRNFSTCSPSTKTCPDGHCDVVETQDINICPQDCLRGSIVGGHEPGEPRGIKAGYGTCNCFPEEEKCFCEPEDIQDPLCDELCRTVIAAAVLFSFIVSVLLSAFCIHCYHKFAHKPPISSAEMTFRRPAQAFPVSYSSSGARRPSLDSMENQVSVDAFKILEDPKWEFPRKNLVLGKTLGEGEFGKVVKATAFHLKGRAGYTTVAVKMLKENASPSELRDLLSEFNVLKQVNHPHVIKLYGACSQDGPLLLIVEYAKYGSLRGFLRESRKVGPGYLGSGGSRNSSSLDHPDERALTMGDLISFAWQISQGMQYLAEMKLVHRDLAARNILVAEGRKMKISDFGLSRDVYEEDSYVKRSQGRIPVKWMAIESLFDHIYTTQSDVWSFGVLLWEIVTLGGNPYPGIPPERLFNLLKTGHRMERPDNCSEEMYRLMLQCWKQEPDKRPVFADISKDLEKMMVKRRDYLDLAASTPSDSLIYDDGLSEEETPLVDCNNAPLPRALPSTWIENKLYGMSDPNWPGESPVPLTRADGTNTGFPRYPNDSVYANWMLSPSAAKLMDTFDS

various kinases [11] = target: various kinases (Homo sapiens, UniProt P07949, V804L); conditions: kinase RET V804L; ZLYTE
various kinases (Homo sapiens, UniProt P07949, V804L), sequence (P07949 29-1114 V804L): as the sequence (P07949 29-1114) above, with V776L counted along it

various kinases [12] = target: various kinases (Homo sapiens, UniProt P07948); conditions: LYN A
various kinases [13] = target: various kinases (Homo sapiens, UniProt Q15759); conditions: MAPK11 (p38 beta)
various kinases [14] = target: various kinases (Homo sapiens, UniProt P25098); conditions: ADRBK1 (GRK2)
various kinases (Homo sapiens, UniProt P25098), sequence (P25098 whole entry): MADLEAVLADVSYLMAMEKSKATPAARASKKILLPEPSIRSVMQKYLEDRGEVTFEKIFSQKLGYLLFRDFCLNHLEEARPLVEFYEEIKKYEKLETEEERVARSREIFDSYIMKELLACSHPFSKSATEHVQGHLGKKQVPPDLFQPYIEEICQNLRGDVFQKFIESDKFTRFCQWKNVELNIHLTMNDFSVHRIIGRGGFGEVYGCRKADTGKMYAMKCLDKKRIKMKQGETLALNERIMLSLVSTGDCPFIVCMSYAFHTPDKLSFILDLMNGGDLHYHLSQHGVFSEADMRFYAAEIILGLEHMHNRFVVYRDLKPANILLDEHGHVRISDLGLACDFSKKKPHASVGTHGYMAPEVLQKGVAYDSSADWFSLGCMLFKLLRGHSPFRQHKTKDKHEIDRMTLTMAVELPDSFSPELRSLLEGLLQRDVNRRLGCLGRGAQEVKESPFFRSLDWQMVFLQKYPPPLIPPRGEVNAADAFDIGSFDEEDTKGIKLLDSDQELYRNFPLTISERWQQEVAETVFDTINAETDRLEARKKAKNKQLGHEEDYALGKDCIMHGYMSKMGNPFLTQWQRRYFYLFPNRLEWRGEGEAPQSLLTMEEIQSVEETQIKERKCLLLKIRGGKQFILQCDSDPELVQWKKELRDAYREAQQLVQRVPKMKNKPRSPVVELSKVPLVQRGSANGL

various kinases [15] = target: various kinases (Homo sapiens, UniProt Q9NR20); conditions: DYRK4
various kinases [16] = target: T2, various kinases (Homo sapiens, UniProt P41743); conditions: kinase PRKCI (PKC iota); ZLYTE
T2 sequence (P41743 1-596): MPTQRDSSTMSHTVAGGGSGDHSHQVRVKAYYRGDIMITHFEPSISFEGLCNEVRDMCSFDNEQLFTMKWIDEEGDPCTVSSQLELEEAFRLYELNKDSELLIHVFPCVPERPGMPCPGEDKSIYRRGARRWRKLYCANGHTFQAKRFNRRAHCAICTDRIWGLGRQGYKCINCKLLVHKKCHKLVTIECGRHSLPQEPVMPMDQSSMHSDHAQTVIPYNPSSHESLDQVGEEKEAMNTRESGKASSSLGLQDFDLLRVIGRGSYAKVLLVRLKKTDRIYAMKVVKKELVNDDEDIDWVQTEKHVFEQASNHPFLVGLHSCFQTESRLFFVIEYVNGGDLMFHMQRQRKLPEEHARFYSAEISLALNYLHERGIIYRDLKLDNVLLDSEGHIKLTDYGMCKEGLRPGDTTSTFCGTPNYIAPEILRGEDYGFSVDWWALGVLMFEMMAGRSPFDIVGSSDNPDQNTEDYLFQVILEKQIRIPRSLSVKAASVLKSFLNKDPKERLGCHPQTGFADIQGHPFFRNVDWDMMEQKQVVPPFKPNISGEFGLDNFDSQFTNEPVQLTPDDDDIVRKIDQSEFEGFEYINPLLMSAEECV

various kinases [17] = target: various kinases (Homo sapiens, UniProt P68400); conditions: CSNK2A1 (CK2 alpha 1)
various kinases [18] = target: various kinases (Homo sapiens, UniProt Q96NX5); conditions: CAMK1G (CAMKI gamma)
various kinases (Homo sapiens, UniProt Q96NX5), sequence (Q96NX5 whole entry): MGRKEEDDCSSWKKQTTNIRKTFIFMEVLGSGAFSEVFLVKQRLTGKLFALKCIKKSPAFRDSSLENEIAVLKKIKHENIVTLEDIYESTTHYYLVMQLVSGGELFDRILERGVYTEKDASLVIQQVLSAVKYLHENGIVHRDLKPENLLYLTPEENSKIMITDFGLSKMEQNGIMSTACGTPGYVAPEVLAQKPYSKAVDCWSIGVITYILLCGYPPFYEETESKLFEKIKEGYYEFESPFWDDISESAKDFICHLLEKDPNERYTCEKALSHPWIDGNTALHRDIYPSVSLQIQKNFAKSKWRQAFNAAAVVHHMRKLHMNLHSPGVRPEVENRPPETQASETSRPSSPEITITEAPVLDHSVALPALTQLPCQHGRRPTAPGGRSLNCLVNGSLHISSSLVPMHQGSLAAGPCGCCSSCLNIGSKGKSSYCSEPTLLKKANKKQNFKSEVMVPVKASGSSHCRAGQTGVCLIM

various kinases [19] = target: various kinases (Homo sapiens, UniProt Q9HC98); conditions: NEK6
various kinases [20] = target: various kinases (Homo sapiens, UniProt P15735); conditions: PHKG2
Throughout, for % Inhibition Average: test concentration or dose not given here.
Throughout, for % Inhibition Duplicate #1: test concentration or dose not given here.
Throughout, for % Inhibition Duplicate #2: test concentration or dose not given here.

various kinases (Homo sapiens, UniProt Q8NE63), sequence (Q8NE63 whole entry): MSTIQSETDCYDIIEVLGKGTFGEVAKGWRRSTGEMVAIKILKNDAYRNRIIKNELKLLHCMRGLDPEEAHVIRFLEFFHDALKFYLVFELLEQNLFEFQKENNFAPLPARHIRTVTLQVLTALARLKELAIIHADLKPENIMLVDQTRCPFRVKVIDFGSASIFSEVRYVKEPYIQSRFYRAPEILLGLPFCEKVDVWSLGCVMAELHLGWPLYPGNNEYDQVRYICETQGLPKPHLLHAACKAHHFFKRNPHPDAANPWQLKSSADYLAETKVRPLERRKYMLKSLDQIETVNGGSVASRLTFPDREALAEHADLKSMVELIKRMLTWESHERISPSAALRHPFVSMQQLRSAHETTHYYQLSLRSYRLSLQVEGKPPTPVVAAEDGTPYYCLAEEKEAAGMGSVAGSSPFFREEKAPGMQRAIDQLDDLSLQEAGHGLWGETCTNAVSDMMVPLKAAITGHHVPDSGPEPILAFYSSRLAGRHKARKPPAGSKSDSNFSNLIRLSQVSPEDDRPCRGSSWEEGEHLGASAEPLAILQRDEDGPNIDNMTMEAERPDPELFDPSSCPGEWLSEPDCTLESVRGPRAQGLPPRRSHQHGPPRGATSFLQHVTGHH

COc1ccc2c(c1)[C@]1(C[C@H]1c1ccc3c(/C=C/c4ccc(CN5C[C@@H](C)O[C@@H](C)C5)cc4)n[nH]c3c1)C(=O)N2 [CFI-400945]
% Inhibition (various kinases [1]): -1% and 2% | % Inhibition (various kinases [2]): 9% and 14% | % Inhibition (various kinases [3]): 2% and 5% | % Inhibition (various kinases [4]): 13% and 12% | % Inhibition Average (various kinases [5]): 2% | % Inhibition Duplicate #1 (various kinases [5]): 0% | % Inhibition Duplicate #2 (various kinases [5]): 4% | % Inhibition (various kinases [6]): 10% and 16% | % Inhibition (various kinases [7]): 5% | % Inhibition Average (various kinases [8]): -5% | % Inhibition Duplicate #1 (various kinases [8]): -13% | % Inhibition Duplicate #2 (various kinases [8]): 3% | % Inhibition (various kinases [9]): 45% and 42% | % Inhibition Average (various kinases [10]): 16% | % Inhibition Duplicate #1 (various kinases [10]): 14% | % Inhibition Duplicate #2 (various kinases [10]): 18% | % Inhibition Average (various kinases [11]): 17% | % Inhibition Duplicate #1 (various kinases [11]): 14% | % Inhibition Duplicate #2 (various kinases [11]): 19% | % Inhibition (various kinases [12]): 11% and 14% | % Inhibition (various kinases [13]): 2% and 5% | % Inhibition (various kinases [14]): 5% and 4% | % Inhibition (various kinases [15]): 3% and 2% | % Inhibition Average (various kinases [16]): 6% | % Inhibition Duplicate #1 (various kinases [16]): 0% | % Inhibition Duplicate #2 (various kinases [16]): 11% | % Inhibition (various kinases [17]): 9% and 4% | % Inhibition (various kinases [18]): -3% and 2% | % Inhibition (various kinases [19]): 8% and 13% | % Inhibition (various kinases [20]): 8% and 7%
